Experimental findings from US9079866B2, “Flap modulators” (JANSSEN PHARMACEUTICA NV, priority 2013, dated 2015) are described below.

Experiment [1] relates to leukotriene pathway in human whole blood (LTB4 levels). The experiment is described as follows: Human whole blood assay (A23187-stimulated LTB4). It is filed as cell-based. The following applies: human whole blood diluted 1:1 in RPMI, A23187-stimulated LTB4, read-out: LTB4 IC50 1:1. In a few lines: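 Compounds are pre-incubated 15 min at 37° Celsius in RPMI-diluted (1:1) heparinised whole blood before a 30 min A23187 stimulus (7 μg/mL). Plasma LTB4 is read by immunoassay kit, with IC50 calculated from a 4-parameter equation.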

Experiment [2] has as its target human FLAP (Homo sapiens (Human), UniProt P20292). The experiment is described as follows: FLAP binding assay (HTRF format). In a few lines:
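HTRF ratio read-out; two independent plates, samples in duplicate on each, values averaged across plates.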
Background: Time-resolved FRET reads energy transfer from a long-lived donor to a nearby acceptor.

[3] abbreviates: human FLAP wild type, HTRF format, average of two plates, duplicates.

Structures are written as SMILES. Where two headings read alike, the source gives them in different places.

human FLAP, sequence (P20292 whole entry): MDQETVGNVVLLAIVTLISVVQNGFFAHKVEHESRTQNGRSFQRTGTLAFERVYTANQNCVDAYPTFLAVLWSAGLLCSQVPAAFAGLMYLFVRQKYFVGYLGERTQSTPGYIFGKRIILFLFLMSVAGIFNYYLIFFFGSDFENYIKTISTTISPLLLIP

Broadly, the IC50 is the concentration that gives 50% inhibition. In general, Ki refers to the equilibrium dissociation constant of an inhibitor or competing ligand from its target. Take `Nc1cnc(-c2ccc(-c3ccccc3S(=O)(=O)N[C@@H](c3ccccc3)C(F)(F)F)cc2F)cn1` [Example 19, (S)-4′-(5-Aminopyrazin-2-yl)-3′-fluoro-N-[(1S)-2,2,2-trifluoro-1-phenylethyl]biphenyl-2-sulfonamide]: the IC50 in experiment [1] (Homo sapiens) stood at 50 nM. In addition, the affinity in experiment [2] (setting [3]) corresponds to a Ki of 2 nM.

As to `C[C@@H](NS(=O)(=O)c1ccccc1-c1ccc(-c2cnc(N)cn2)c(F)c1)C(F)(F)F` [Example 20, (S)-4′-(5-Aminopyrazin-2-yl)-3′-fluoro-N-[(1S)-2,2,2-trifluoro-1-methylethyl]biphenyl-2-sulfonamide], in experiment [1], the IC50 stood at 9 nM. Further, the Ki in experiment [2] (setting [3]) was found to be 1 nM.

As for `Nc1cnc(-c2ccc(-c3ccccc3S(=O)(=O)N[C@@H]3CCc4ccccc43)cc2F)cn1` [Example 23, (R)-4′-(5-Aminopyrazin-2-yl)-N-[(1R)-2,3-dihydro-1H-inden-1-yl]-3′-fluorobiphenyl-2-sulfonamide], the IC50 in experiment [1] (Homo sapiens) turned out to be 13 nM. The affinity in experiment [2] (setting [3]), expressed as Ki, was 1 nM.

Consider `Nc1cnc(-c2ccc(-c3ccccc3S(=O)(=O)Nc3ccccc3)cc2F)cn1` [Example 26, 4′-(5-Aminopyrazin-2-yl)-3′-fluoro-N-phenylbiphenyl-2-sulfonamide], for which the IC50 in experiment [1] (Homo sapiens) was found to be 26 nM. Moreover, the inhibition constant Ki in experiment [2] (setting [3]) was determined as 1 nM.

As to `CCN1CCCC[C@@H](NS(=O)(=O)c2ccccc2-c2ccc(-c3cnc(N)cn3)c(F)c2)C1=O` [Example 27, (S)-4′-(5-Aminopyrazin-2-yl)-N-[(3S)-1-ethyl-2-oxoazepan-3-yl]-3′-fluorobiphenyl-2-sulfonamide], in experiment [1] (Homo sapiens), the 50% inhibitory concentration (IC50) is 10000 nM. This compound returned a Ki in experiment [2] (setting [3]) of 29 nM.

For `CN1CCCC[C@@H](NS(=O)(=O)c2ccccc2-c2ccc(-c3cnc(N)cn3)c(F)c2)C1=O` [Example 29, (S)-4′-(5-Aminopyrazin-2-yl)-3′-fluoro-N-[(3S)-1-methyl-2-oxoazepan-3-yl]biphenyl-2-sulfonamide], the IC50 in experiment [1] (Homo sapiens) was 30 nM. In experiment [2] (setting [3]), this compound returned an inhibition constant Ki of 59 nM.

Regarding `Nc1cnc(-c2ccc(-c3ccccc3S(=O)(=O)Nc3cccnc3)cc2F)cn1` [Example 31, 4′-(5-Aminopyrazin-2-yl)-3′-fluoro-N-pyridin-3-ylbiphenyl-2-sulfonamide], in experiment [1] (Homo sapiens), the IC50 turned out to be 36 nM. This compound displayed an inhibition constant Ki in experiment [2] (setting [3]) of 4 nM.

With `CC(C)S(=O)(=O)Nc1ccccc1-c1ccc(-c2cnc(N)cn2)c(F)c1` [Example 34, N-(4′-(5-Aminopyrazin-2-yl)-3′-fluoro-[1,1′-biphenyl]-2-yl)propane-2-sulfonamide], in experiment [1] (Homo sapiens), the IC50 is 334 nM. This compound also gave an inhibitory constant (Ki) in experiment [2] (setting [3]) of 31 nM.

`CCS(=O)(=O)Nc1ccccc1-c1ccc(-c2cnc(N)cn2)c(F)c1` [Example 35, N-[4′-(5-Aminopyrazin-2-yl)-3′-fluorobiphenyl-2-yl]ethanesulfonamide]: the IC50 in experiment [1] (Homo sapiens) was found to be 94 nM. The compound further gave a Ki in experiment [2] (setting [3]) of 36 nM.

Take `CCCS(=O)(=O)Nc1ccccc1-c1ccc(-c2cnc(N)cn2)c(F)c1` [Example 36, N-[4′-(5-Aminopyrazin-2-yl)-3′-fluorobiphenyl-2-yl]propane-1-sulfonamide]: the half-inhibitory concentration (IC50) in experiment [1] (Homo sapiens) came to 120 nM. For the same compound, the inhibition constant Ki in experiment [2] (read-out: FLAP Binding wild type HTRF Ki) came out at 10 nM.

Regarding `CC(C)CS(=O)(=O)Nc1ccccc1-c1ccc(-c2cnc(N)cn2)c(F)c1` [Example 37, N-[4′-(5-Aminopyrazin-2-yl)-3′-fluorobiphenyl-2-yl]-2-methylpropane-1-sulfonamide], in experiment [1] (Homo sapiens), the IC50 was 676 nM. Besides, the inhibition constant (Ki) in experiment [2] (setting [3]) is 30 nM.

On to `Nc1cnc(-c2ccc(-c3ccccc3NS(=O)(=O)C3CC3)cc2F)cn1` [Example 38, N-(4′-(5-aminopyrazin-2-yl)-3′-fluoro-[1,1′-biphenyl]-2-yl)cyclopropanesulfonamide], for which the IC50 in experiment [1] (Homo sapiens) stood at 177 nM. Besides, in experiment [2] (setting [3]), affinity was put at a Ki of 33 nM.

For `CCCCCCS(=O)(=O)Nc1ccccc1-c1ccc(-c2cnc(N)cn2)c(F)c1` [Example 39, N-[4′-(5-Aminopyrazin-2-yl)-3′-fluorobiphenyl-2-yl]hexane-1-sulfonamide], the IC50 in experiment [1] (Homo sapiens) came out at 75 nM. In addition, the Ki in experiment [2] (setting [3]) amounted to 8 nM.

For `Nc1cnc(-c2ccc(-c3ccccc3NS(=O)(=O)C3CCC3)cc2F)cn1` [Example 40, N-(4′-(5-Aminopyrazin-2-yl)-3′-fluoro-[1,1′-biphenyl]-2-yl)cyclobutanesulfonamide], the IC50 in experiment [1] (Homo sapiens) was determined as 112 nM. The compound also yielded a Ki in experiment [2] (setting [3]) of 14 nM.

As to `Nc1cnc(-c2ccc(-c3ccccc3NS(=O)(=O)C(F)(F)F)cc2F)cn1` [Example 41, [4′-(5-Aminopyrazin-2-yl)-3′-fluorobiphenyl-2-yl]-1,1,1-trifluoromethanesulfonamide], the IC50 in experiment [1] (Homo sapiens) was determined as 2690 nM. The compound further gave a Ki in experiment [2] (setting [3]) of 14 nM.

With `CN(C)S(=O)(=O)c1ccccc1-c1ccc(-c2cnc(N)cn2)c(F)c1` [Example 42, 4′-(5-Aminopyrazin-2-yl)-3′-fluoro-N,N-dimethylbiphenyl-2-sulfonamide], the IC50 in experiment [1] (Homo sapiens) amounted to 149 nM. The compound also came in with an inhibition constant Ki in experiment [2] (setting [3]) of 11 nM.

On to `Nc1cnc(-c2ccc(-c3ccccc3S(=O)(=O)N3CCCCC3)cc2F)cn1` [Example 43, 5-[3-Fluoro-2′-(piperidin-1-ylsulfonyl)biphenyl-4-yl]pyrazin-2-amine], for which the IC50 in experiment [1] (Homo sapiens) is 111 nM. Further, in experiment [2] (setting [3]), the Ki stood at 2 nM.

On to `Nc1cnc(-c2ccc(-c3ccccc3S(=O)(=O)N3CCOCC3)cc2F)cn1` [Example 44, 5-[3-Fluoro-2′-(morpholin-4-ylsulfonyl)biphenyl-4-yl]pyrazin-2-amine], for which, in experiment [1] (Homo sapiens), the half-inhibitory concentration (IC50) stood at 58 nM. Moreover, the Ki in experiment [2] (setting [3]) amounted to 7 nM.

Turning to `Nc1cnc(-c2ccc(-c3ccccc3S(=O)(=O)N3CCS(=O)(=O)CC3)cc2F)cn1` [Example 45, 5-{2′-[(1,1-Dioxidothiomorpholin-4-yl)sulfonyl]-3-fluorobiphenyl-4-yl}pyrazin-2-amine], the IC50 in experiment [1] (Homo sapiens) was found to be 10 nM. In experiment [2] (setting [3]), this compound had a Ki of 3 nM.

On to `Nc1cnc(-c2ccc(-c3ccccc3S(=O)(=O)N3CCNCC3)cc2F)cn1` [Example 46, 5-[3-Fluoro-2′-(piperazin-1-ylsulfonyl)biphenyl-4-yl]pyrazin-2-amine], for which, in experiment [1] (Homo sapiens), the IC50 turned out to be 194 nM. This compound came in with a Ki in experiment [2] (setting [3]) of 57 nM.

With `CCN(CC)S(=O)(=O)c1ccccc1-c1ccc(-c2cnc(N)cn2)c(F)c1` [Example 47, 4′-(5-Aminopyrazin-2-yl)-N,N-diethyl-3′-fluorobiphenyl-2-sulfonamide], the IC50 in experiment [1] (Homo sapiens) was 17 nM. The compound also returned a Ki in experiment [2] (setting [3]) of 1 nM.

On to `Nc1cnc(-c2ccc(-c3ccccc3S(=O)(=O)N3CCCC3)cc2F)cn1` [Example 48, 5-[3-Fluoro-2′-(pyrrolidin-1-ylsulfonyl)biphenyl-4-yl]pyrazin-2-amine], for which the IC50 in experiment [1] (Homo sapiens) is 158 nM. This compound also gave an inhibition constant Ki in experiment [2] (setting [3]) of 11 nM.

As to `Nc1cnc(-c2ccc(-c3ccccc3S(=O)(=O)N3CCC(F)(F)CC3)cc2F)cn1` [Example 49, 5-{2′-[(4,4-Difluoropiperidin-1-yl)sulfonyl]-3-fluorobiphenyl-4-yl}pyrazin-2-amine], the 50% inhibitory concentration (IC50) in experiment [1] (Homo sapiens) was 21 nM. Moreover, the Ki in experiment [2] (setting [3]) is 2 nM.

`Nc1cnc(-c2ccc(-c3ccccc3S(=O)(=O)N3CCCC(F)(F)C3)cc2F)cn1` [Example 50, 5-{2′-[(3,3-Difluoropiperidin-1-yl)sulfonyl]-3-fluorobiphenyl-4-yl}pyrazin-2-amine]: the half-maximal inhibitory concentration (IC50) in experiment [1] (Homo sapiens) is 15 nM. In experiment [2] (setting [3]), this compound registered an inhibitory constant (Ki) of 1 nM.

For `Nc1cnc(-c2ccc(-c3ccccc3S(=O)(=O)N3CCC(F)(F)C3)cc2F)cn1` [Example 51, 5-{2′-[(3,3-Difluoropyrrolidin-1-yl)sulfonyl]-3-fluorobiphenyl-4-yl}pyrazin-2-amine], the half-inhibitory concentration (IC50) in experiment [1] (Homo sapiens) is 42 nM. For the same compound, affinity in experiment [2] (setting [3]) was put at a Ki of 4 nM.
